Data set [1] is filed under the species Homo sapiens. The experiment in a line: Selectivity for tryptase over trypsin.
Data set [2] concerns the target Trypsin (Homo sapiens, UniProt P07477+P07478+P35030). The experiment in a line: Inhibition of trypsin. The data set is classed as protein assay.
The target of data set [3] is Tryptase beta-1 (Homo sapiens, UniProt Q15661). The experiment in a line: Inhibition of human B tryptase. Conditions: read-out: Ki app.
Data set [4] concerns the target Urokinase-type plasminogen activator (Homo sapiens, UniProt P00749). As to the kind of experiment: Inhibition of urokinase. To be noted: read-out: Ki app.
Data set [5] deals with T1, Granzyme K (Homo sapiens, UniProt P49863).
T1 sequence (P49863 whole entry): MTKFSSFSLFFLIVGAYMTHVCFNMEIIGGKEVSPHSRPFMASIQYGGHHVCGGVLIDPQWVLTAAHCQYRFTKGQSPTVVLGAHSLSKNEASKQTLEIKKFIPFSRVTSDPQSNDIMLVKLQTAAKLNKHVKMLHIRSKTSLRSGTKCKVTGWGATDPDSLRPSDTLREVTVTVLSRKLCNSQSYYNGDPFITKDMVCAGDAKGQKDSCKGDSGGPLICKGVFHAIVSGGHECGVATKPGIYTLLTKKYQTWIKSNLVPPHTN
The experiment in a line: Inhibition of granzyme K. To be noted: read-out: Ki app.

Data set [6] has as its target Plasma kallikrein (Homo sapiens, UniProt P03952). The experiment in a line: Inhibition of kallikrein. To be noted: read-out: Ki app.
Data set [7] concerns the target Chymotrypsinogen B (Homo sapiens, UniProt P17538). As to the kind of experiment: Inhibition of chymotrypsin. Conditions: read-out: Ki app.
The target of data set [8] is T2, Chymase (Homo sapiens, UniProt P23946).
T2 sequence (P23946 whole entry): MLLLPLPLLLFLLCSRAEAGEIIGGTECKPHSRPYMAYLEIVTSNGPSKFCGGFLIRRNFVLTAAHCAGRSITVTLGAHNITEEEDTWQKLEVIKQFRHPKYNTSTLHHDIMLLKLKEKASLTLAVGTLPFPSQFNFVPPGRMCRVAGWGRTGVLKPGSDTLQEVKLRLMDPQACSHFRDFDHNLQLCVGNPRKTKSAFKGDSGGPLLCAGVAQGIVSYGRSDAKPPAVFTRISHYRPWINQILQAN
The experiment in a line: Inhibition of chymase. To be noted: read-out: Ki app.

For data set [9], the target named is Vitamin K-dependent protein C (Homo sapiens, UniProt P04070). The experiment in a line: Inhibition of APC. To be noted: read-out: Ki app.
In data set [10] the target is Prothrombin (Homo sapiens, UniProt P00734). The experiment in a line: Inhibition of thrombin. Conditions: read-out: Ki app.
Data set [11] is described as follows: Inhibition of elastase. Also noted: species or system Homo sapiens. To be noted: read-out: Ki app.
The target in data set [12] is Plasminogen (Homo sapiens, UniProt P00747). The experiment in a line: Inhibition of plasmin. To be noted: read-out: Ki app.
Data set [13] is described as follows: Central volume of distribution in rat at 0.5 mg/kg, iv. It counts as ADME, organism-based. Conditions: in vivo, read-out: Vc. More on the design: dose 0.5 mg/kg, route intravenous.
Data set [14] in a line: Clearance in rat at 0.5 mg/kg, iv. The data set is classed as ADME, organism-based. More on the design: dose 0.5 mg/kg, route intravenous. To be noted: in vivo.
The nature of data set [15]: Oral absorption in rat at 5 mg/kg, po. It counts as ADME, organism-based. Also noted: dose 5 mg/kg, route oral. To be noted: in vivo.
Data set [16] in a line: AUC in rat at 0.5 mg/kg, iv. To be noted: plasma. The data set is classed as ADME, organism-based. Also noted: dose 0.5 mg/kg, route intravenous.
Data set [17] is described as follows: Mean residence time in rat at 0.5 mg/kg, iv. The data set is classed as ADME, organism-based. More on the design: dose 0.5 mg/kg, route intravenous. To be noted: in vivo.
Data set [18] can be described thus: Oral bioavailability in rat at 5 mg/kg, po. It counts as ADME, organism-based. Conditions: in vivo.
The nature of data set [19]: Terminal half life in rat at 0.5 mg/kg, iv. The data set is classed as ADME, organism-based. Also noted: dose 0.5 mg/kg, route intravenous. To be noted: in vivo.
Data set [20] is described as follows: Terminal half life in rat at 5 mg/kg, po. The data set is classed as ADME, organism-based. More on the design: dose 5 mg/kg, route oral. To be noted: in vivo.
A short description of data set [21]: Cmax in rat at 0.5 mg/kg, iv. It counts as ADME, organism-based. Also noted: dose 0.5 mg/kg, route intravenous. Conditions: in vivo.
A short description of data set [22]: Steady state volume of distribution in rat at 0.5 mg/kg, iv. More on the design: dose 0.5 mg/kg, route intravenous. It counts as ADME, organism-based. To be noted: in vivo, read-out: Vss.

Sequence of Tryptase beta-1 (Q15661 whole entry): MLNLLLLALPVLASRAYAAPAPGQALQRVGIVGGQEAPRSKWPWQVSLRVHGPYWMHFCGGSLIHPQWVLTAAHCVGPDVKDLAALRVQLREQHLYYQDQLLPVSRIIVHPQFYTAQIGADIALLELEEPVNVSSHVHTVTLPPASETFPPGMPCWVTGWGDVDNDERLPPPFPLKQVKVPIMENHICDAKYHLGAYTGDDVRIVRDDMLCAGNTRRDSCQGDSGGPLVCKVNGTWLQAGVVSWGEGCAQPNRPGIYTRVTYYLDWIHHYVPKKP
Sequence of Plasma kallikrein (P03952 20-390 limits assumed): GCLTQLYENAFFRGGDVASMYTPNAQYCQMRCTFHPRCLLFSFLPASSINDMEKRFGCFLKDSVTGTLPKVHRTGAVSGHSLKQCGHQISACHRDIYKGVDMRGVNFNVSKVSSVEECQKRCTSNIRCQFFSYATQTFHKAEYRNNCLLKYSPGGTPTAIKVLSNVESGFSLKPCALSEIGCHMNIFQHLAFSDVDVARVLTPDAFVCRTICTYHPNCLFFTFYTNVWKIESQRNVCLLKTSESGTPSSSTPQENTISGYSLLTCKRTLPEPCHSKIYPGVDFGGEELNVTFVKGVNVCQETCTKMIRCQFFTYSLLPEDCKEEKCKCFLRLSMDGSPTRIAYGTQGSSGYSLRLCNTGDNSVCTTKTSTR
Sequence of Plasma kallikrein (P03952 391-638 limits assumed): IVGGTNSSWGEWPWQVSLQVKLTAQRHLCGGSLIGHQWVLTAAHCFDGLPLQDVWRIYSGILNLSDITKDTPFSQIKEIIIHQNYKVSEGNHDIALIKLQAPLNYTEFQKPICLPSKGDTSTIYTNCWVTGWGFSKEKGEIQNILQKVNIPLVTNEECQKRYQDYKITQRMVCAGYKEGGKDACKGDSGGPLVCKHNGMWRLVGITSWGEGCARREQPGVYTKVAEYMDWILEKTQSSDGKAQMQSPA
Sequence of Plasminogen (P00747 97-580 limits assumed): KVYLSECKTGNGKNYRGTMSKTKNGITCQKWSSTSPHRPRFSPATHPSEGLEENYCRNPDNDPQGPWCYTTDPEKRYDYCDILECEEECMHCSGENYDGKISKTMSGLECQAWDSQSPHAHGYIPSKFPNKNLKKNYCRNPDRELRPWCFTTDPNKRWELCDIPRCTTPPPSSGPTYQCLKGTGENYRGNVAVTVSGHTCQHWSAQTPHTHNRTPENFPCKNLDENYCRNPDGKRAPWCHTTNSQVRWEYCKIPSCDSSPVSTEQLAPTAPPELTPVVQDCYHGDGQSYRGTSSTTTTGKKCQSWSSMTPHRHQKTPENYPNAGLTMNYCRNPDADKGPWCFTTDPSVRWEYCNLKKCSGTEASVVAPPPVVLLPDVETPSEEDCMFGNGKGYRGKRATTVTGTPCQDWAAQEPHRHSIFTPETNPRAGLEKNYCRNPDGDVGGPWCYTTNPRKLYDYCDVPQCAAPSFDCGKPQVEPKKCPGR
Sequence of Plasminogen (P00747 581-810 limits assumed): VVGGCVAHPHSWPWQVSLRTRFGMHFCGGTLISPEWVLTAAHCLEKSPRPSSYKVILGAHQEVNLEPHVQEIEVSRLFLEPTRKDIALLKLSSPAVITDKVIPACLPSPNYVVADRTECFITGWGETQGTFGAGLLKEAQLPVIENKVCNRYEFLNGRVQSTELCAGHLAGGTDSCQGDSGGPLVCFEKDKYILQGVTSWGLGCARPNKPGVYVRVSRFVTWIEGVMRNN
Sequence of Vitamin K-dependent protein C (P04070 43-197 limits assumed): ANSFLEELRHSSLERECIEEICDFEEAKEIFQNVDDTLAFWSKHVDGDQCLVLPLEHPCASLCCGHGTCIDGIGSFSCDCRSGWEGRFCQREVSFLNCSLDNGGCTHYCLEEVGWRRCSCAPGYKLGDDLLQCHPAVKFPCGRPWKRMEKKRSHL
Sequence of Vitamin K-dependent protein C (P04070 212-461 limits assumed): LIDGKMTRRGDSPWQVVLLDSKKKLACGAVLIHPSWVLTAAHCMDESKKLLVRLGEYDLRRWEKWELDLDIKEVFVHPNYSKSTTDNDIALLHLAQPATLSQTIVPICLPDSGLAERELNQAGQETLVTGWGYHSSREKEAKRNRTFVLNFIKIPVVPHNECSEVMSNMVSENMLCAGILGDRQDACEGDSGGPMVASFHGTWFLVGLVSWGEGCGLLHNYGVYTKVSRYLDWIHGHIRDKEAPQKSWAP
Sequence of Chymotrypsinogen B (P17538 34-164 limits assumed, other chains not shown): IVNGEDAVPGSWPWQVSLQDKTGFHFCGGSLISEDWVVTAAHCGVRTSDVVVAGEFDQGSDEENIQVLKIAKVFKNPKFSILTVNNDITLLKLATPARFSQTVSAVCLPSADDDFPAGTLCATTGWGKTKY
Sequence of Chymotrypsinogen B (P17538 167-263 limits assumed, other chains not shown): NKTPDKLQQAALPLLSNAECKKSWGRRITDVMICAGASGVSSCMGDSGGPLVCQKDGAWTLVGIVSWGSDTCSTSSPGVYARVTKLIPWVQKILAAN

With `Cc1cc(C(=O)N[C@@H](CCCCN)C(=O)c2noc(Cc3ccc(OCCc4ccc(Cl)c(Cl)c4)cc3)n2)c(C)o1.Cl`, the Selectivity ratio in data set [1] is 85. In data set [2], this compound gave a Ki app of 3900 nM. Further, the Ki in [3] came to 46 nM.
For `Cl.NCCCC[C@H](NC(=O)N1CCCC1)C(=O)c1noc(Cc2ccc(OCCc3ccc(Cl)c(Cl)c3)cc2)n1` the same measures were 119, 3800 nM and 32 nM.
The like results for `Cl.NCCCC[C@H](NC(=O)C1CCCC1)C(=O)c1noc(Cc2ccc(OCCc3ccc(Cl)c(Cl)c3)cc2)n1` were, in that order, 46, 300 nM and 6.5 nM.
For `Cl.NCCCC[C@H](NC(=O)C1CCOC1)C(=O)c1noc(Cc2ccc(OCCc3ccc(Cl)c(Cl)c3)cc2)n1` (stereo partly drawn) the same measures were 50, 1100 nM and 22 nM.
As for `COCCOC(=O)N[C@@H](CCCCN)C(=O)c1noc(Cc2ccc(OCCc3ccc(Cl)c(Cl)c3)cc2)n1.Cl`, in [1], the Selectivity ratio amounted to 100. In data set [2], the Ki app turned out to be 500 nM. Also, in data set [3], the Ki was determined as 5 nM.
The like results for `Cl.NCCCC[C@H](NC(=O)c1ccco1)C(=O)c1noc(Cc2ccc(OCCc3ccc(Cl)c(Cl)c3)cc2)n1` were, in that order, 209, 480 nM and 2.3 nM.
As for `Cl.NCCCC[C@H](NC(=O)c1ccccc1F)C(=O)c1noc(Cc2ccc(OCCc3ccc(Cl)c(Cl)c3)cc2)n1`, the Selectivity ratio in data set [1] amounted to 177. Also, the Ki app in data set [2] amounted to 1100 nM. For the same compound, the Ki in data set [3] came to 6.2 nM.
The like results for `Cl.NCCCC[C@H](NC(=O)N1CCOCC1)C(=O)c1noc(Cc2ccc(OCCc3ccc(Cl)c(Cl)c3)cc2)n1` were, in that order, 153, 870 nM and 5.7 nM.
The like results for `CCOC(=O)N[C@@H](CCCCN)C(=O)c1noc(Cc2ccc(OCCc3ccc(Cl)c(Cl)c3)cc2)n1.Cl` were, in that order, 81, 380 nM and 4.7 nM.
In the case of `CC(C)OC(=O)N[C@@H](CCCCN)C(=O)c1noc(Cc2ccc(OCCc3ccc(Cl)c(Cl)c3)cc2)n1.Cl`, the Selectivity ratio in [1] was determined as 83. The Ki app in [2] came to 415 nM. Also, the Ki in [3] turned out to be 5 nM.
With `CN(C)C(=O)N[C@@H](CCCCN)C(=O)c1noc(Cc2ccc(OCCc3ccc(Cl)c(Cl)c3)cc2)n1.Cl`, the Selectivity ratio in [1] was determined as 89. Also, the Ki app in [2] worked out at 850 nM. Further, the Ki in data set [3] came to 9.6 nM.
For `COCC(=O)N[C@@H](CCCCN)C(=O)c1noc(Cc2ccc(OCCc3ccc(Cl)c(Cl)c3)cc2)n1.Cl` the same measures were 51, 190 nM and 3.7 nM.
For `Cl.NCCCC[C@H](NC(=O)c1cccc(F)c1)C(=O)c1noc(Cc2ccc(OCCc3ccc(Cl)c(Cl)c3)cc2)n1` the same measures were 293, 1700 nM and 5.8 nM.
The like results for `CCN(CC)C(=O)N[C@@H](CCCCN)C(=O)c1noc(Cc2ccc(OCCc3ccc(Cl)c(Cl)c3)cc2)n1.Cl` were, in that order, 133, 2400 nM and 18 nM.
For the compound `CC(C)(C)COC(=O)N[C@@H](CCCCN)C(=O)c1noc(Cc2ccc(OCCc3ccc(Cl)c(Cl)c3)cc2)n1.Cl`, the Selectivity ratio in data set [1] was 173. In [2], this compound gave a Ki app of 1900 nM. In addition, the Ki in data set [3] is 11 nM.
For `Cl.NCCCC[C@H](NC(=O)c1ccc(F)cc1F)C(=O)c1noc(Cc2ccc(OCCc3ccc(Cl)c(Cl)c3)cc2)n1` the same measures were 354, 1150 nM and 3.25 nM.
For `CCOC(=O)N[C@@H](CCCCN)C(=O)c1noc(Cc2ccc(OCCc3ccccc3)cc2)n1`, the Ki was > 150000 nM in data set [4]; > 150000 nM in data set [5]; 43000 nM in [6]; > 150000 nM in data set [7]; > 150000 nM in data set [8]; > 150000 nM in data set [9]. The Ki in data set [10] is 64000 nM; in data set [11], > 150000 nM; in data set [12] it was 430 nM; in data set [3], 5.4 nM. Moreover, the Ki app in data set [2] turned out to be 190 nM.
`Cl.NCCCC[C@H](NC(=O)c1ccc(Cl)cc1)C(=O)c1noc(Cc2ccc(OCCc3ccc(Cl)c(Cl)c3)cc2)n1`: the Selectivity ratio in [1] turned out to be 389. The compound also gave a Ki app in data set [2] of 2550 nM. For the same compound, the Ki in data set [3] was 6.55 nM.
As for `CC(C)C(=O)N[C@@H](CCCCN)C(=O)c1noc(Cc2ccc(OCCc3ccc(Cl)c(Cl)c3)cc2)n1.Cl`, in data set [1], the Selectivity ratio amounted to 18. Further, the Ki app in data set [2] was determined as 120 nM. Besides, the Ki in data set [3] worked out at 6.8 nM.
For `CC(C)(C)C(=O)N[C@@H](CCCCN)C(=O)c1noc(Cc2ccc(OCCc3ccc(Cl)c(Cl)c3)cc2)n1.Cl` the same measures were 167, 625 nM and 3.75 nM.
As to `NCCCC[C@H](NC(=O)C1CC1)C(=O)c1noc(Cc2ccc(OCCc3ccc(Cl)c(Cl)c3)cc2)n1`, the Selectivity ratio in data set [1] turned out to be 10. Moreover, the Ki in [3] was determined as 4.6 nM.
On to `Cl.NCCCC[C@H](NC(=O)C(F)(F)F)C(=O)c1noc(Cc2ccc(OCCc3ccc(Cl)c(Cl)c3)cc2)n1`, for which, in data set [1], the Selectivity ratio turned out to be 76. In addition, the Ki app in data set [2] came out at 220 nM. Besides, in data set [3], the Ki was 2.9 nM.
The like results for `CCCCCC(=O)N[C@@H](CCCCN)C(=O)c1noc(Cc2ccc(OCCc3ccc(Cl)c(Cl)c3)cc2)n1.Cl` were, in that order, 18, 180 nM and 9.8 nM.
For `COC(=O)N[C@@H](CCCCN)C(=O)c1noc(Cc2ccc(OCCc3ccc(Cl)c(Cl)c3)cc2)n1.Cl`, the Selectivity ratio in [1] was determined as 129. Besides, the Ki app in data set [2] came out at 2200 nM. For the same compound, the Ki in data set [3] turned out to be 17 nM.
The like results for `Cl.NCCCC[C@H](NC(=O)N1CCCCC1)C(=O)c1noc(Cc2ccc(OCCc3ccc(Cl)c(Cl)c3)cc2)n1` were, in that order, 152, 1400 nM and 9.2 nM.
With `Cl.NCCCC[C@H](NC(=O)c1ccc(F)cc1)C(=O)c1noc(Cc2ccc(OCCc3ccc(Cl)c(Cl)c3)cc2)n1`, the results for the Vd in data set [13] and in data set [22] were 0.457 L/kg and 7.8 L/kg, respectively. Moreover, the clearance in [14] stood at 45 mL/min/kg. Moreover, the Fa in [15] stood at 12%. Moreover, the area under the curve (AUC) in [16] is 0.3 µM·h. The compound further registered a Ki app in data set [2] of 1100 nM. This compound showed an MRT in data set [17] of 2.88 h. In data set [18], this compound displayed a bioavailability of 9%. For the same compound, the half-life in [19] is 2.9 h; in data set [20], 2.25 h. This compound showed a Cmax in data set [21] of 1010 nM.

The values above are taken from ChEMBL document CHEMBL1138088, “Design and synthesis of selective keto-1,2,4-oxadiazole-based tryptase inhibitors” (Bioorg Med Chem Lett, 2006).
